The values that follow come from patent publication US20060276527A1, “Combination therapies for the treatment of cancer” (Thresold Pharmaceuticals, Inc., priority 2003, published 2006).

Like-named read-outs stand apart in the source and are kept apart here.

One assay relates to advanced breast cancer. The note with it: daily divided oral dose of 600 mg, cited from earlier work.
The test system of assay [1] is HIF-1alpha. The settings on record: PC3 cells, normoxic and hypoxic conditions, 4 hours; inhibition dose-dependent.
Method: Methods: Cells were plated at a density of 5×10^5 cells into a dish, and then maintained in 37° C. incubator (5% CO2) for 2 days. Prior to the assay, cells were rinsed twice with pre-warmed (37° C.) RPMI-1640 Medium (ATCC No. 30-2001; 10 mM HEPES; 1 mM sodium pyruvate; 2 mM L-glutamine; 4500 mg glucose/L; 1500 mg sodium bicarbonate/L). […] At the end of the incubation, the dish was placed on ice, and the cells were washed rapidly twice with cold PBS buffer (4° C.). For nuclear extracts, cells were lysed with buffer A (10 mM Tris, pH7.5; 1.5 mM MgCl2; 10 mM KCl and protease inhibitors and buffer C (0.5 M NaCl; 20 mM Tris pH7.5; 1.5 mM MgCl2; 20% glycerol and protease inhibitors), sequentially. The protease inhibitors used in the experiments were a cocktail of five protease inhibitors (500 mM AEBSF-HCl, 1 mg/ml Aprotinin, 1 mM E-64, 500 mM EDTA and 1 mM Leupeptin; Calbiochem NO 539131). For whole cell lysate, cells were lysed with 150 mM NaCl; 10 mM Tris ph7.5; 10 mM EDTA; 1% Triton X-100; 0.5% Deoxycholate, and protease inhibitors. The protein concentration was measured using a Bio-Rad protein assay. Equal amounts of protein were loaded on a SDS-PAGE gel. […] The specific protein was detected using a colorimetric substrate, and the intensity of each protein was quantified using an NIH image system.
The subject of another assay is metastatic breast cancer. The settings on record: addition of LND to epirubicin, factorial design; cited from earlier work.
The subject of assay [2] is actin, caspase 3, NF-kappabeta, Ikappabetaalpha. The note with it: except at 800 microM concentration.
Method: Methods: Cells were plated at a density of 5×10^5 cells into a dish, and then maintained in 37° C. incubator (5% CO2) for 2 days. Prior to the assay, cells were rinsed twice with pre-warmed (37° C.) RPMI-1640 Medium (ATCC No. 30-2001; 10 mM HEPES; 1 mM sodium pyruvate; 2 mM L-glutamine; 4500 mg glucose/L; 1500 mg sodium bicarbonate/L). Cells were incubated with 2 mL culture medium in the absence or presence of lonidamine at different concentrations for 4 hours at 37° C. either under normoxia or hypoxia (oxygen level<0.1%). At the end of the incubation, the dish was placed on ice, and the cells were washed rapidly twice with cold PBS buffer (4° C.). For nuclear extracts, cells were lysed with buffer A (10 mM Tris, pH7.5; 1.5 mM MgCl2; 10 mM KCl and protease inhibitors and buffer C (0.5 M NaCl; 20 mM Tris pH7.5; 1.5 mM MgCl2; 20% glycerol and protease inhibitors), sequentially. The protease inhibitors used in the experiments were a cocktail of five protease inhibitors (500 mM AEBSF-HCl, 1 mg/ml Aprotinin, 1 mM E-64, 500 mM EDTA and 1 mM Leupeptin; Calbiochem NO 539131). For whole cell lysate, cells were lysed with 150 mM NaCl; 10 mM Tris ph7.5; 10 mM EDTA; 1% Triton X-100; 0.5% Deoxycholate, and protease inhibitors. The protein concentration was measured using a Bio-Rad protein assay. Equal amounts of protein were loaded on a SDS-PAGE gel. […]
The subject of assay [3] is HIF-1alpha.
Method: LNCaP is a citrate-producing cell (ATTC No. CRL-1740) while PC3 is citrate oxidizing cell (ATTC No. CRL-1435).
Methods: Cells were plated at a density of 5×10^5 cells into a dish, and then maintained in 37° C. incubator (5% CO2) for 2 days. Prior to the assay, cells were rinsed twice with pre-warmed (37° C.) RPMI-1640 Medium (ATCC No. 30-2001; 10 mM HEPES; 1 mM sodium pyruvate; 2 mM L-glutamine; 4500 mg glucose/L; 1500 mg sodium bicarbonate/L). Cells were incubated with 2 mL culture medium in the absence or presence of lonidamine at different concentrations for 4 hours at 37° C. either under normoxia or hypoxia (oxygen level<0.1%). […] For nuclear extracts, cells were lysed with buffer A (10 mM Tris, pH7.5; 1.5 mM MgCl2; 10 mM KCl and protease inhibitors and buffer C (0.5 M NaCl; 20 mM Tris pH7.5; 1.5 mM MgCl2; 20% glycerol and protease inhibitors), sequentially. The protease inhibitors used in the experiments were a cocktail of five protease inhibitors (500 mM AEBSF-HCl, 1 mg/ml Aprotinin, 1 mM E-64, 500 mM EDTA and 1 mM Leupeptin; Calbiochem NO 539131). For whole cell lysate, cells were lysed with 150 mM NaCl; 10 mM Tris ph7.5; 10 mM EDTA; 1% Triton X-100; 0.5% Deoxycholate, and protease inhibitors. The protein concentration was measured using a Bio-Rad protein assay. […]

For the compound `O=C(O)c1nn(Cc2ccc(Cl)cc2Cl)c2ccccc12` [lonidamine, 1-(2,4-dichlorobenzyl)-1H-indazole-3-carboxylic acid], in the assay with advanced breast cancer (28 patients evaluable), the minor response was 11% and the “partial response (4-24+ months)” value is given as 11%. Moreover, in the assay on advanced breast cancer (of 28 patients evaluable), the progressed is 20 patients and the “stable disease (greater than 3 months)” value is “two”. The “level of HIF-1alpha protein detected in nuclear (NE) and whole-cell extract (WCE) preparations” value in the assay on HIF-1alpha [1] is “reduced the level of HIF-1alpha protein”. Moreover, in the assay on metastatic breast cancer, the “time to progression in metastatic breast cancer patients treated with epirubicin” value is reported as “not improved”. Further, the “inhibition of protein levels of actin, caspase 3, NF-kappabeta, or Ikappabetaalpha” value in assay [2] is “no detectable inhibition”. Also, in the assay with HIF-1alpha [3] (HIF-1alpha accumulation, LNCaP versus PC3), the “sensitivity of citrate-producing cells (LNCaP) to lonidamine treatment compared to citrate-oxidizing cells (PC3)” value is “greater sensitivity”. The “level of HIF-1alpha protein detected in nuclear (NE) and whole-cell extract (WCE) preparations” value with HIF-1alpha [3] (LNCaP cells, hypoxic conditions (oxygen <0.1%), 4 hours, inhibition dose-dependent) is recorded as “reduced the level of HIF-1alpha protein”.
